Tests used:
[1] = Antioxidant degradation evaluation assay (iodometric titration of vitamin C); type: physicochemical; settings: vitamin C 10 μg/ml
Experimental: This assay was performed according to a method modified from the method shown by Roberts et al. (1997). First, a liquid sample containing a specific antioxidant at a concentration to be tested was prepared, and the liquid sample containing the specific antioxidant was added into a 250 mL Erlenmeyer flask by a pipette and deionized water was added the to the Erlenmeyer flask to reach the 100 mL scale mark. At the same time, 1 mL of 0.1 M sodium iodide (NaI) and 1 mL of 0.1 M hydrochloric acid (hydrogen chloride, HCl) and 1 mL of 2% starch aqueous solution (indicator) were added to the Erlenmeyer flask. Next, a burette was rinsed the with 0.025 M potassium iodate (KIO3) at least twice, first, and then filled with 0.025 M potassium iodate in a technique of avoiding bubble formation during the filling, and the initial volume of the solution (Vi) in the burette was record after the filling. Thereafter, the liquid sample containing the specific antioxidant mentioned above was titrated with 0.025 M potassium iodate. […] Depending on the condition, the titration operation mentioned above could be repeated two or three times, as appropriate. Finally, the specific antioxidant content could be calculated from the titration volume of potassium iodate.

[2] = ABTS free radical scavenging assay; settings: vitamin C 10 μg/ml, normal temperature
Experimental: Antioxidant capacity of a sample to be tested was evaluate by ABTS (English full name: 2,2′-azinobis-3-ethyl benzothiazoline-6-sulphonic acid) free radical scavenging test. Since ABTS and potassium persulphate (K2S2O8) will produce an oxidation reaction and form a stable blue-green water-soluble ABTS⋅^+ radical ion with a maximum absorption peak at 734 nm, ABTS⋅^+ free radical concentration can be detected through A734 nm. When the ABTS⋅^+ radical solution is added with an antioxidant (radical scavenger), the original single radicals are paired, causing the ABTS⋅^+ radical solution to fade and the A734 nm absorption value to decrease, thereby evaluating Free radical scavenging ability of the antioxidant can be evaluated.
The mixed solution was placed in a dark room at room temperature for 16 hours of reaction to form stable ABTS⋅^+ radical ions (blue-green), and then the mixed solution was diluted with deionized water to form a ABTS⋅^+ radical ion working solution with absorbance of 0.75±0.05 at 734 nm by a spectrophotometer.
Next, a sample to be tested and standards (Trolox) with different concentrations were added to the ABTS⋅^+ radical ion working solution, respectively, and a group in which only deionized water was added was used as a control group. Absorbance at 734 nm was detected by a spectrophotometer after 20 minutes of reaction. Abilities to scavenge ABTS⋅+ radicals of the standards (Trolox) with different concentrations were plotted as a scavenging standard curve. The measured absorbance of the sample to be tested and the control group are converted according to the standard curve to know the free radical scavenging ability of the sample to be tested. The formula for calculating the scavenging ability is: (1-ABSsample/ABScontrol)×100.

[3] = DPPH free radical scavenging assay; settings: normal temperature; for DPPH free radical capture rate: vitamin C 10 μg/ml
Experimental: DPPH is a stable free radical. When it is dissolved in methanol or ethanol, it will appear purple and has a strong absorbance at 515 nm. When the sample to be tested can directly react with DPPH radicals, it will block the […] reaction of DPPH free radicals. At this time, the DPPH solution which originally appeared blue-violet will turn into clear yellow, and the absorbance at 515 nm will decrease, and that means that the sample to be tested has an antioxidant component that captures DPPH free radicals. The lighter the color become, the stronger ability to capture DPPH free radicals the antioxidant component has, which means the better the antioxidant capacity of the sample to be tested has. This assay was performed according to a method modified from the method shown by Parejo et al (2003). Aqueous solution of the sample to be tested and standards (Glutathione) with different concentrations each 30 μl were added to the 96-well plate, respectively, and water was used as a blank control. Thereafter, 120 μl of 100 mM Tris-HCl buffer (pH 7.4) was added to the plate and then 150 μl of 500 μM DPPH (Sigma Sigma) ethanol solution was immediately added and uniformly mixed at room temperature and allowed to stand in the dark for 20 minutes. After that, absorbance at 515 nm was detected by a spectrophotometer. The more DPPH free radicals were scavenged, the more the absorbance value decreased. Ability of each sample to be tested to scavenge DPPH free radicals (also means the strength of the hydrogen supply capacity of the sample to be tested) can be determined by percentage of decrease in absorbance relative to the blank control group.

[4] = room temperature (about 26° C.), 24 hours

## O=C1O[C@H]([C@@H](O)CO)C(O)=C1O [vitamin C, ascorbic acid]
[1]; 40° C., 4 hours
  vitamin C concentration decreased: 20.4%
[1]; 40° C., 24 hours
  vitamin C concentration, % of the initial concentration: about 24.3%
[1]; 40° C., 72 hours
  vitamin C concentration, % of the initial concentration: 3.3%
[1]; [4]
  vitamin C concentration reduced / degraded: 62.6%
  vitamin C concentration, % of the initial concentration: about 40%
[1]; room temperature (about 26° C.), 72 hours
  vitamin C concentration, % of the initial concentration: about 0.9%
[2]; 0 hours
  ABTS radical ion scavenging rate: 57.08%
[2]; 72 hours
  ABTS radical ion scavenging rate: 2.49%
[2]; after 24 hours
  ABTS radical ion scavenging rate: 22.45%
[3]; after 24 hours
  decrease of antioxidant capacity (DPPH): about 60%
  DPPH free radical capture rate: 34.67%
[3]; 0 hour
  DPPH free radical capture rate: 86.77%
[3]; 72 hours
  DPPH free radical capture rate: 2.99%

— patent publication US11246822B2, “Biomedical composition for skin care and/or maintenance and delaying and/or inhibiting skin aging and the use thereof” (INDUSTRIAL TECHNOLOGY RESEARCH INSTITUTE, priority 2019, dated 2022)
